Key:
Format in all cases: cell-based
3T3 cells = experiment: MTT cell proliferation assay; conditions: Mus musculus, NIH3T3, approximately 64-72 hours
Experimental: (§1) The MTT cell proliferation assay was used to study the cytotoxic properties of the compounds. The assay was performed according to the method described by Roche Molecular Biochemicals, with minor modifications. The assay is based on the cleavage of the tetrazolium salt, MTT, in the presence of an electron-coupling reagent. The water-insoluble formazan salt produced must be solubilized in an additional step. Cells grown in a 96-well tissue culture plate were incubated with the MTT solution for approximately 4 hours. After this incubation period, a water-insoluble formazan dye formed. After solubilization, the formazan dye was quantitated using a scanning multi-well spectrophotometer (ELISA reader). […] The cells were seeded at 5,000-10,000 cells in each well of 96-well plate in 100 μL of fresh culture medium and were allowed to attach overnight. The stock solutions of the compounds were diluted in 100 μL cell culture medium to obtain eight concentrations of each test compound, ranging from 1 nM to 30 μM. […] All optical densities were measured at 490 nm using a Vmax Kinetic Microplate Reader (Molecular Devices). In most cases, the assay was performed in duplicate and the results were presented as a mean percent inhibition to the negative control±SE. The following formula was used to calculate the percent of inhibition: Inhibition (%)=(1−(ODo/OD))×100.
(§2) The compounds were tested against Z138, MM1S and 3T3 cells. The Z138 cell line is a mature B-cell acute lymphoblastic leukemia cell line derived from a patient with chronic lumphocytic leukemia. The MM1S cell line was established from the peripheral blood of a human multiple myeloma patient. 3T3 cells are standard fibroblast cells; they were originally isolated from Swiss mouse embryo tissue.

Z138 cells = experiment: MTT cell proliferation assay; conditions: Homo sapiens, Z-138, approximately 64-72 hours
Experimental: as §1, §2

MM1S cells = experiment: MTT cell proliferation assay; conditions: Homo sapiens, MM1.S, approximately 64-72 hours
Experimental: as §1, §2

CRM1 = target: T1, CRM1 (Homo sapiens, UniProt O14980); experiment: Inhibition of nuclear export, RevGFP assay in U2OS-RevGFP cells; conditions: approximately 1 hour incubation
T1 construct: endogenous in cells; host or cells: U2OS cells stably expressing Rev-GFP
T1 sequence (O14980 whole entry): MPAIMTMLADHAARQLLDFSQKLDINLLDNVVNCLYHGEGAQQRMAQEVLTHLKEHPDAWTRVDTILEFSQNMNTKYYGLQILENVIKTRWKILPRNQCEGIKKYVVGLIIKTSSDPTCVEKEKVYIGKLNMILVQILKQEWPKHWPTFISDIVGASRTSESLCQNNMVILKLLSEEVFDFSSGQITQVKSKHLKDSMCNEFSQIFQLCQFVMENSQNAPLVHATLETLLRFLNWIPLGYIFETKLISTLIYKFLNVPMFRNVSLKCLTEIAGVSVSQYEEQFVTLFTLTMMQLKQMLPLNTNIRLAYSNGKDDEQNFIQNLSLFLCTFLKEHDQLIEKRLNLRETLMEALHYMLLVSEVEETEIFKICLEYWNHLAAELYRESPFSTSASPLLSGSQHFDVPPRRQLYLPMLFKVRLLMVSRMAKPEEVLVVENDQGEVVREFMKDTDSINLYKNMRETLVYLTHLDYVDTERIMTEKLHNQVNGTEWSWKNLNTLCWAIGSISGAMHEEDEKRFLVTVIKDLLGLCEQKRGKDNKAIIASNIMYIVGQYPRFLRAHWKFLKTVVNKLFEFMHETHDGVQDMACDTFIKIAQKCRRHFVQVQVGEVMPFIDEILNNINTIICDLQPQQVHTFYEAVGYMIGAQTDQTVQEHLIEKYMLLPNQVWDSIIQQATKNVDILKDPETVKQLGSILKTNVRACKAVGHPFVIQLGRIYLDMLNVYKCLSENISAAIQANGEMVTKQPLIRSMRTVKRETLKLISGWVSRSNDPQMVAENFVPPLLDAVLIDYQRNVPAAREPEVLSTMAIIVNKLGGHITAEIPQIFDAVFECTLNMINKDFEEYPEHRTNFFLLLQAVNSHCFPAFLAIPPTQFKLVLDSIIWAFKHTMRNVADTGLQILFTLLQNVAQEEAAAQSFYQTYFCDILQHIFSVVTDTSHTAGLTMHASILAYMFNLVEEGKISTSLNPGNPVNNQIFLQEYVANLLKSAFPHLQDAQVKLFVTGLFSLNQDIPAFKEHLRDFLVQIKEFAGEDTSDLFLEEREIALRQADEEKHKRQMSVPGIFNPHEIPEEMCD
Experimental: The inhibition of CRM1 mediated nuclear export by compounds of the invention was determined in a RevGFP assay. Rev is a protein from human immunodeficiency virus type 1 (HIV-1) and contains a nuclear export signal (NES) in its C-terminal domain and a nuclear localization signal (NLS) in its N-terminal domain. Nuclear export of Rev protein is dependent on the classical NES/CRM1 pathway (Neville et al, 1997, Kau et al, 2003).
In this assay, U2OS-RevGFP cells were seeded onto clear-bottom, black, 384-well plates the day before the experiment. Compounds were serially diluted 1:2 starting from 40 μM in a separate 384-well plate in DMEM, and then transferred onto cells. Cells were incubated with compound for approximately 1 hour before fixation with 3.7% formaldehyde and nuclei staining with Hoechst 33258. The amount of GFP in cell nuclei was measured and compound IC50s were determined (Kau et al, 2003).

SMILES	IC50 (MM1S cells) [nM]	IC50 (CRM1) [nM]	IC50 (3T3 cells) [nM]	IC50 (Z138 cells) [nM]
NC(=O)/C(=C/n1cnc(-c2cc(C(F)(F)F)cc(C(F)(F)F)c2)n1)c1cnc(N)nc1 [Compound 136, (E)-2-(2-aminopyrimidin-5-yl)-3-(3-(3,5-bis(trifluoromethyl)phenyl)-1H-1,2,4-triazol-1-yl)acrylamide]	< 100	100 to 5000	> 30000	100 to 5000
CC(C)OC(=O)/C(=C/n1cnc(-c2cc(C(F)(F)F)cc(C(F)(F)F)c2)n1)c1cnn(C)c1 [Compound 130, isopropyl (E)-3-(3-(3,5-bis(trifluoromethyl)phenyl)-1H-1,2,4-triazol-1-yl)-2-(1-methyl-1H-pyrazol-4-yl)acrylate]	< 100	100 to 5000		
NC(=O)/C(=C/n1cnc(-c2cc(C(F)(F)F)cc(C(F)(F)F)c2)n1)c1ccncc1F [Compound 138, (E)-3-(3-(3,5-bis(trifluoromethyl)phenyl)-1H-1,2,4-triazol-1-yl)-2-(3-fluoropyridin-4-yl)acrylamide]	< 100	< 100	100 to 5000	< 100
N#C/C(=C/n1cnc(-c2cc(C(F)(F)F)cc(C(F)(F)F)c2)n1)c1ccncc1 [Compound 105, (E)-3-(3-(3,5-bis(trifluoromethyl)phenyl)-1H-1,2,4-triazol-1-yl)-2-(pyridin-4-yl)acrylonitrile]	100 to 5000	100 to 5000	> 30000	
NC(=O)/C(=C/n1cnc(-c2cc(C(F)(F)F)cc(C(F)(F)F)c2)n1)c1cccnc1 [Compound 104, (E)-3-(3-(3,5-bis(trifluoromethyl)phenyl)-1H-1,2,4-triazol-1-yl)-2-(pyridin-3-yl)acrylamide]	< 100	100 to 5000	100 to 5000	< 100
Cc1noc(C)c1/C(=C\n1cnc(-c2cc(C(F)(F)F)cc(C(F)(F)F)c2)n1)C(N)=O [Compound 118, (E)-3-(3-(3,5-bis(trifluoromethyl)phenyl)-1H-1,2,4-triazol-1-yl)-2-(3,5-dimethylisoxazol-4-yl) acrylamide]	100 to 5000	100 to 5000	> 30000	100 to 5000
Cc1noc(C)c1/C(=C\n1cnc(-c2cc(C(F)(F)F)cc(C(F)(F)F)c2)n1)C(=O)OC(C)C [Compound 116, isopropyl (E)-3-(3-(3,5-bis (trifluoromethyl)phenyl)-1H-1,2,4-triazol-1-yl)-2-(3,5-dimethylisoxazol-4-yl) acrylate]	100 to 5000	100 to 5000		
CC(C)OC(=O)/C(=C/n1cnc(-c2cc(C(F)(F)F)cc(C(F)(F)F)c2)n1)c1cccnc1 [Compound 101, (E)-isopropyl 3-(3-(3,5-bis(trifluoromethyl)phenyl)-1H-1,2,4-triazol-1-yl)-2-(pyridin-3-yl)acrylate]	< 100	5000 to 30000	5000 to 30000	100 to 5000
N#CC(=Cn1cnc(-c2cc(C(F)(F)F)cc(C(F)(F)F)c2)n1)c1ccccn1 [Compound 100, 3-(3-(3,5-bis(trifluoromethyl)phenyl)-1H-1,2,4-triazol-1-yl)-2-(pyridin-2-yl)acrylonitrile]	> 30000	> 30000	> 30000	> 30000
NC(=O)/C(=C/n1cnc(-c2cc(C(F)(F)F)cc(C(F)(F)F)c2)n1)c1cncc(Cl)c1 [Compound 141, (E)-3-(3-(3,5-bis(trifluoromethyl)phenyl)-1H-1,2,4-triazol-1-yl)-2-(5-chloropyridin-3-yl)acrylamide]	< 100	100 to 5000	> 30000	100 to 5000

Now from value to compound, other results behind:

IC50 (MM1S cells) [nM]	IC50 (CRM1) [nM]	SMILES	IC50 (3T3 cells) [nM]	IC50 (Z138 cells) [nM]
< 100	< 100	NC(=O)/C(=C\n1cnc(-c2cc(C(F)(F)F)cc(C(F)(F)F)c2)n1)c1ccnc(F)c1 [Compound 155, (Z)-3-(3-(3,5-bis(trifluoromethyl)phenyl)-1H-1,2,4-triazol-1-yl)-2-(2-fluoropyridin-4-yl)acrylamide]	100 to 5000	< 100
< 100	100 to 5000	Cn1cc(/C(=C\n2cnc(-c3cc(C(F)(F)F)cc(C(F)(F)F)c3)n2)C(N)=O)cn1 [Compound 114, (E)-3-(3-(3,5-bis(trifluoromethyl)phenyl)-1H-1,2,4-triazol-1-yl)-2-(1-methyl-1H-pyrazol-4-yl)acrylamide]		
< 100	< 100	NC(=O)/C(=C/n1cnc(-c2cc(C(F)(F)F)cc(C(F)(F)F)c2)n1)c1ccnc(F)c1 [Compound 140, (E)-3-(3-(3,5-bis(trifluoromethyl)phenyl)-1H-1,2,4-triazol-1-yl)-2-(2-fluoropyridin-4-yl)acrylamide]	> 30000	< 100
	< 100	NC(=O)/C(=C/n1cnc(-c2cc(C(F)(F)F)cc(C(F)(F)F)c2)n1)c1cncc(F)c1 [Compound 132, (E)-3-(3-(3,5-bis(trifluoromethyl)phenyl)-1H-1,2,4-triazol-1-yl)-2-(5-fluoropyridin-3-yl)acrylamide]		
100 to 5000	100 to 5000	CC(C)OC(=O)/C(=C/n1cnc(-c2cc(C(F)(F)F)cc(C(F)(F)F)c2)n1)c1cncc(F)c1 [Compound 119, isopropyl (E)-3-(3-(3,5-bis(trifluoromethyl)phenyl)-1H-1,2,4-triazol-1-yl)-2-(5-fluoropyridin-3-yl)acrylate]	> 30000	100 to 5000
100 to 5000	100 to 5000	CC(C)OC(=O)/C(=C/n1cnc(-c2cc(C(F)(F)F)cc(C(F)(F)F)c2)n1)c1cncnc1 [Compound 115, isopropyl (E)-3-(3-(3,5-bis(trifluoromethyl)phenyl)-1H-1,2,4-triazol-1-yl)-2-(pyrimidin-5-yl)acrylate]		
< 100	< 100	NC(=O)/C(=C/n1cnc(-c2cc(C(F)(F)F)cc(C(F)(F)F)c2)n1)c1nccs1 [Compound 111, (Z)-3-(3-(3,5-bis(trifluoromethyl)phenyl)-1H-1,2,4-triazol-1-yl)-2-(thiazol-2-yl)acrylamide]	> 30000	
100 to 5000	100 to 5000	NC(=O)/C(=C\n1cnc(-c2cc(C(F)(F)F)cc(C(F)(F)F)c2)n1)c1ccc(Cl)nc1 [Compound 156, (Z)-3-(3-(3,5-bis(trifluoromethyl)phenyl)-1H-1,2,4-triazol-1-yl)-2-(6-chloropyridin-3-yl)acrylamide]	> 30000	100 to 5000
100 to 5000	100 to 5000	COc1ccc(/C(=C\n2cnc(-c3cc(C(F)(F)F)cc(C(F)(F)F)c3)n2)C(=O)OC(C)C)cn1 [Compound 120, isopropyl (E)-3-(3-(3,5-bis (trifluoromethyl)phenyl)-1H-1,2,4-triazol-1-yl)-2-(6-methoxypyridin-3-yl) acrylate]	> 30000	100 to 5000
100 to 5000	5000 to 30000	CN(C)C(=O)/C(=C/n1cnc(-c2cc(C(F)(F)F)cc(C(F)(F)F)c2)n1)c1ccncc1 [Compound 113, (E)-3-(3-(3,5-bis(trifluoromethyl)phenyl)-1H-1,2,4-triazol-1-yl)-N,N-dimethyl-2-(pyridin-4-yl)acrylamide]		
< 100	100 to 5000	NC(=O)/C(=C/n1cnc(-c2cc(C(F)(F)F)cc(C(F)(F)F)c2)n1)c1ccc(Cl)nc1 [Compound 143, (E)-3-(3-(3,5-bis(trifluoromethyl)phenyl)-1H-1,2,4-triazol-1-yl)-2-(6-chloropyridin-3-yl)acrylamide]	> 30000	100 to 5000
< 100	< 100	NC(=O)/C(=C/n1cnc(-c2cc(C(F)(F)F)cc(C(F)(F)F)c2)n1)c1ccncc1 [Compound 108, (E)-3-(3-(3,5-bis(trifluoromethyl)phenyl)-1H-1,2,4-triazol-1-yl)-2-(pyridin-4-yl)acrylamide]	> 30000	100 to 5000
< 100	< 100	NC(=O)/C(=C/n1cnc(-c2cc(C(F)(F)F)cc(C(F)(F)F)c2)n1)c1ccnc(C(F)(F)F)c1 [Compound 147, (E)-3-(3-(3,5-bis(trifluoromethyl)phenyl)-1H-1,2,4-triazol-1-yl)-2-(2-(trifluoromethyl)pyridin-4-yl)acrylamide]	100 to 5000	100 to 5000

From US11945794B2, “Nuclear transport modulators and uses thereof” (Karyopharm Therapeutics Inc., priority 2013, dated 2024)
